Assay results as given in the supplement of paper PMC10307832.

Key:
Assay in all cases: relative viability (nuclei count vs DMSO), 5 days (fraction); higher = more cells survive
AZD5582 + AZD7762 = compound: C[C@@H](C(=O)N[C@@H](C1CCCCC1)C(=O)N2CCC[C@H]2C(=O)N[C@@H]3[C@@H](CC4=CC=CC=C34)OCC#CC#CCO[C@@H]5CC6=CC=CC=C6[C@@H]5NC(=O)[C@@H]7CCCN7C(=O)[C@H](C8CCCCC8)NC(=O)[C@H](C)NC)NC [AZD5582] + NC(=O)Nc1cc(-c2cccc(F)c2)sc1C(=O)N[C@H]1CCCNC1 [AZD7762] (partner 0.2 µM)
Method in brief: (§1)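 Relative viability was taken as the ratio of nuclei in treated wells to nuclei in vehicle wells. Lung cancer cell lines in 1536-well plates received compounds by pin tool one day after seeding, either one drug alone or a fixed anchor-drug dose plus five library-drug doses (not always all listed) in √10 steps. Nuclei were counted on 4× images after 5 days of treatment, and values are medians of duplicate plates.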

AZD5582 + Vorinostat = compound: C[C@@H](C(=O)N[C@@H](C1CCCCC1)C(=O)N2CCC[C@H]2C(=O)N[C@@H]3[C@@H](CC4=CC=CC=C34)OCC#CC#CCO[C@@H]5CC6=CC=CC=C6[C@@H]5NC(=O)[C@@H]7CCCN7C(=O)[C@H](C8CCCCC8)NC(=O)[C@H](C)NC)NC [AZD5582] + O=C(CCCCCCC(=O)Nc1ccccc1)NO [Vorinostat] (partner 1 µM)
Method in brief: as §1

Temozolomide + Foretinib = compound: Cn1nnc2c(C(N)=O)ncn2c1=O [Temozolomide] + COc1cc2c(Oc3ccc(NC(=O)C4(C(=O)Nc5ccc(F)cc5)CC4)cc3F)ccnc2cc1OCCCN1CCOCC1 [Foretinib] (partner 0.25 µM)
Method in brief: as §1

[1] = compound: Cn1nnc2c(C(N)=O)ncn2c1=O [Temozolomide] + C[C@@H](Oc1cc(-c2cnn(C3CCNCC3)c2)cnc1N)c1c(Cl)ccc(F)c1Cl [Crizotinib] (partner 1 µM)
Method in brief: as §1

Cell Line	relative viability (AZD5582 + AZD7762; first compound 0.001581 µM)	relative viability (AZD5582 + AZD7762; first compound 0.005 µM)	relative viability (AZD5582 + AZD7762; first compound 0.01581 µM)	relative viability (AZD5582 + AZD7762; first compound 0.05 µM)	relative viability (AZD5582 + Vorinostat; first compound 0.001581 µM)	relative viability (AZD5582 + Vorinostat; first compound 0.005 µM)	relative viability (AZD5582 + Vorinostat; first compound 0.01581 µM)	relative viability (AZD5582 + Vorinostat; first compound 0.05 µM)	relative viability (Temozolomide + Foretinib; first compound 0.2 µM)	relative viability (Temozolomide + Foretinib; first compound 0.6325 µM)	relative viability (Temozolomide + Foretinib; first compound 2 µM)	relative viability (Temozolomide + Foretinib; first compound 6.325 µM)	relative viability (Temozolomide + Foretinib; first compound 20 µM)	relative viability ([1]; first compound 0.2 µM)	relative viability ([1]; first compound 0.6325 µM)	relative viability ([1]; first compound 2 µM)	relative viability ([1]; first compound 6.325 µM)	relative viability ([1]; first compound 20 µM)
NCI-H1355	0.47	0.667	0.643	0.556	0.568	0.711	0.535	0.596	0.947	0.938	1.1	1	0.908	1.11	1.13	1.09	1.11	0.97
NCI-H1437	1.1	1.14	1.09	1.14	0.711	0.751	0.838	0.743	1.27	1.25	1.27	1.26	1.31	0.94	1.03	0.968	0.995	0.999
NCI-H1651	0.419	0.456	0.398	0.388	0.525	0.557	0.56	0.584	0.914	0.725	0.782	0.759	0.839	0.8	0.869	0.818	0.85	0.864
NCI-H1666	0.774	0.85	0.737	0.746	0.848	0.891	1.05	0.958	0.917	0.868	0.837	0.611	0.679	0.888	0.858	0.698	0.648	0.518
NCI-H1734	0.502	0.498	0.584	0.749	0.754	0.85	0.889	0.877	0.874	0.929	0.959	0.754	0.859	0.707	0.704	0.684	0.647	0.656
NCI-H1755	0.438	0.472	0.291	0.494	0.775	0.863	0.688	0.88	0.979	0.93	0.908	0.873	0.722	1	0.894	0.894	0.805	0.678
NCI-H1915	0.657	0.672	0.673	0.495	0.428	0.439	0.462	0.477	1.11	1.04	1	0.733	0.429	0.922	0.816	0.754	0.597	0.342
NCI-H1944	0.316	0.523	0.475	0.581	0.464	0.641	0.542	0.619	0.756	0.922	0.847	0.875	0.795	0.817	1.08	1.18	1.06	0.975
NCI-H1975	0.709	0.932	0.667	0.902	0.699	0.872	0.687	0.885	0.997	0.936	1.09	0.917	0.931	1.02	0.948	1.06	0.92	0.956
NCI-H1993	0.694	0.867	0.7	1.03	0.725	0.888	0.795	1.03	0.81	0.722	0.807	0.72	0.672	0.779	0.85	0.876	0.94	0.703
NCI-H2085	0.987	1.02	0.855	0.948	0.82	1	0.73	0.917	0.847	1.04	1.05	0.939	0.749	0.746	0.904	0.651	0.866	0.685
NCI-H2087	1.21	1.27	1.17	1.13	0.424	0.788	0.712	0.594	1.23	1.16	1.19	1.23	1.04	0.898	0.74	0.892	0.803	0.871
NCI-H2126	0.981	0.933	0.896	0.747	0.817	0.84	0.47	0.704	1.04	1.3	1.23	1.38	1.27	1.05	0.984	0.974	1.07	1.05
NCI-H2170	0.813	0.884	0.88	1.04	0.683	0.834	0.787	0.91	–	1.01	1.05	0.993	0.526	–	1.26	1.21	0.999	0.494
NCI-H2347	0.724	0.558	0.666	0.713	0.63	0.547	0.515	0.483	1.11	1.03	1.42	0.773	0.982	0.695	0.712	0.715	0.651	0.645
NCI-H2405	0.87	0.878	0.674	0.997	1.04	1.1	0.88	1.11	0.992	1.07	1.09	1.01	0.994	0.882	0.863	0.955	0.771	0.822
NCI-H3122	0.899	0.988	1.01	0.306	0.946	1.09	0.924	0.236	0.915	0.924	1.07	1	0.946	0.291	0.281	0.324	0.264	0.235
